Measured values published in patent US12377161B2, “TNF-alpha immunoconjugate therapy for the treatment of brain tumors” (priority 2020, dated 2025).
Entries after “also recorded” stand apart in the source; their conditions may differ.

What was measured:
Format in all cases: in vivo, human
recurrent glioblastoma [1] = assay: Immunohistochemistry of tumor tissue before and after treatment with L19-TNFα; conditions: re-section tissue after treatment vs tissue from first surgery, patient with progressive disease
[2] = test system: glioblastoma (WHO grade IV) at first recurrence; assay: L19-TNF plus lomustine in a patient with glioblastoma at first recurrence, contrast enhanced MRI; conditions: one patient; 13 μg/kg L19-TNF iv on Days 1, 3, 5, 22, 24, 26 with 90 mg/m2 lomustine on Day 1; 40 days after baseline image
Procedure: This example describes the effect of a combination therapy on a patient with recurrent glioblastoma after chemoradiotherapy followed by temozolomide maintenance therapy.
A patient with glioblastoma (WHO grade IV) at first recurrence, received 90 mg/m2 lomustine (CCNU) on Day 1. Additionally, this patient received 13 μg/kg L19-TNF, by iv infusion, on Days 1, 3, 5, 22, 24 and 26.
The patient had been pretreated for newly diagnosed glioblastoma with resection and chemoradiotherapy followed by temozolomide maintenance therapy.
Contrast enhanced MRI was performed initially, before receiving the lomustine and L19-TNF (baseline image; see FIG. 3A) and 40 days after baseline image (FIG. 3B).

recurrent glioblastoma [3] = assay: L19-TNFα treatment of patients with recurrent glioblastoma (tumor perfusion, necrosis, disease status)
Procedure: Three patients with recurrent glioblastoma were treated with L19-TNFα at a dose level of 10 μg/kg. […] This is surprising considering that the Progression Free Survival (PFS) for recurrent glioblastoma is 1.5 months.

[4] = three patients, 10 μg/kg, twenty-four hours after the infusion

## L19-TNFα
Recurrent glioblastoma [1]
  cleaved caspase-3 levels in tumor: increase; also recorded: increased levels
  tumor-infiltrating CD4 T-cells: significant increase
  tumor-infiltrating CD8 T-cells: significant increase
[2]
  tumour size on contrast enhanced MRI: substantially reduced
Recurrent glioblastoma [3]; 10 μg/kg, one of three patients, after three months
  disease status, one patient: progressive disease
Recurrent glioblastoma [3]; 10 μg/kg, two of three patients, at six months after treatment, with increasing area of necrosis in the tumor region
  disease status, two patients: stable disease
Recurrent glioblastoma [3]; [4]
  overall tumor perfusion: decrease
  tumor necrosis: emerging tumor necrosis
Recurrent glioblastoma [3]; two patients, FIG. 1A, after two and six cycles
  glioma lesions (size): gradually shrink
Recurrent glioblastoma [3]; two patients, FIG. 1A, before vs after treatment
  necrotic core of the lesions: expanding necrotic core
